{"source": "patent US11878972B2", "about": "“Treatment of neurological disorders” (TORQUR AG, priority 2016, dated 2024)", "key": {"[1]": {"test": "PK in Sprague Dawley (SD) rats", "format": "in vivo, rat", "description": "A single oral administration of cpd. 3, 10 mg/kg was given to female SD rats in a vehicle consisting of DMSO/HPBCD 20% (10/90). Animals were housed in controlled environment and enclosures provided sterile and adequate space with bedding material, food and water, environmental and social enrichment (group housing). Rats were randomized according to their individual body weight, treated and blood, brain and liver were collected and snap frozen at the following time points: 0.5, 2, 4 and 8 hours. Blood (approximately 500-700 μL, collected via cardiac puncture under anesthesia) was immediately transferred into tubes containing lithium-heparin as anticoagulant (Ref: T MLH, Venoject®, Terumo). Tubes were centrifuged at 1,300 g for 10 minutes at +4° C. The resulting plasma was collected and snap frozen in liquid nitrogen and stored at −80° C. until analysis.\nCompound concentrations were detected by HPLC-MS/MS. The calibration curves were drawn using standards of known concentrations."}, "in vivo": {"test": "in vivo", "settings": "B57BL/6J, mouse", "experimental": "8, 50 mg/kg was administered to B57BL/6J mice by gavage. Animals were housed in temperature controlled rooms with free access to food and water. Test items were weighed in a glass vial and dissolved first in DMSO. Tween 80 was added subsequently and finally, the formulation was completed with HPβCD 20%. […] Blood was collected in tubes containing K3-EDTA and stored on ice until centrifugation at 3000×g (10 min. 4° C.). The plasma supernatant was separated and kept at −20° C. until being assayed. Thigh muscle and brain of mice were snap frozen. The brain and muscle samples were homogenized in PBS using the Precellys 24/Dual homogeniser.\nSamples were analyzed by LC-MS. Calibration standards were prepared by spiking 20 μl of drug free blank plasma with calibration solution. […] Samples were vigorously shaken and centrifuged for 10 minutes at 6000 g and 20° C. […] An aliquot was transferred to 200 μl sampler vials and subsequently subjected to LC-MS with an injection volume of 1.5 μl."}, "[2]": {"settings": "female, Sprague-Dawley, plasma, rat, po, 10 mg/kg, single"}}, "data": [{"smiles": "Nc1cc(C(F)F)c(-c2nc(N3C4CCC3COC4)nc(N3C4CCC3COC4)n2)cn1", "note": "[Compound 3, 5-(4-(3-oxa-8-azabicyclo[3.2.1]octan-8-yl)-6-(3-oxa-8-azabicyclo[3.2.1]octan-8-yl)-1,3,5-triazin-2-yl)-4-(difluoromethyl)pyridin-2-amine]", "values": [{"measurement": "oral bioavailability", "setting": "[1]; SD rats, single oral 10 mg/kg", "value": "good oral bioavailability"}, {"measurement": "penetration into the brain", "setting": "[1]; SD rats, single oral 10 mg/kg", "value": "excellent penetration into the brain"}, {"measurement": "Tmax", "setting": "[1]; female, Sprague-Dawley, brain, rat, po, 10 mg/kg, single, read-out: Brain Tmax", "value": 0.5, "unit": "h"}, {"measurement": "AUC", "setting": "[1]; [2]", "value": 400, "unit": "ng·h/mL"}, {"measurement": "Cmax", "setting": "[1]; [2]", "value": 1400, "unit": "ng/mL"}, {"measurement": "Tmax", "setting": "[1]; female, Sprague-Dawley, plasma, rat, po, 10 mg/kg, single, read-out: Plasma Tmax", "value": 0.5, "unit": "h"}, {"measurement": "Brain AUC", "setting": "[1]; rat, po, 10 mg/kg, single", "value": 2500, "unit": "ng·h/mL"}, {"measurement": "Brain Cmax", "setting": "[1]; rat, po, 10 mg/kg, single", "value": 1.3, "unit": "µg/g"}, {"measurement": "half-life", "setting": "in vivo; half-life", "value": 5, "unit": "h"}, {"measurement": "AUC", "setting": "in vivo; po, 50 mg/kg", "value": 20500, "unit": "ng·h/mL"}, {"measurement": "Tmax", "setting": "in vivo; po, 50 mg/kg", "value": 0.5, "unit": "h"}, {"measurement": "half-life", "setting": "in vivo; po, 50 mg/kg, Brain t1/2", "value": 5, "unit": "h"}, {"measurement": "half-life", "setting": "in vivo; po, 50 mg/kg, Plasma t1/2", "value": 5.3, "unit": "h"}, {"measurement": "half-life", "setting": "in vivo; po, 50 mg/kg, half-life in mice (estimated)", "value": "4.7 to 4.8", "unit": "h"}]}]}
